{
  "source": "patent US6784177B2",
  "about": "“Methods using hydralazine compounds and isosorbide dinitrate or isosorbide mononitrate” (Nitro Med, Inc., priority 1999, dated 2004)",
  "key": {"[1]": {"test_system": "male patients with heart failure", "settings": "V-HeFT I", "description": "Baseline measurements were restricted to the test done at the time of randomization. Change in measurements from baseline were compared between black and white patients using t-tests performed for each scheduled follow-up. […] Survival curves were compared by the log-rank test. Survival in black and white patients was further analyzed by presence or absence of a history of hypertension.\nIn the present invention, an interaction analysis between race and treatment was performed for both V-HeFT I and II, adjusting for baseline imbalances.\nMale patients were screened for participation in the study on the basis of a history of heart failure or documentation of left ventricular enlargement or dysfunction by chest radiography, echocardiography or radionuclide ventriculography. The specific ventricular imaging requirement for entry was one of the following: a radiographic cardiothoracic ratio >0.55, an echocardiographic left ventricular end-diastolic diameter >2.7 cm/m^2 body surface area or radionuclide left ventricular ejection fraction <0.45. In addition, patients were eligible for entry only if they had reduced maximal exercise tolerance. This was defined as a measured peak oxygen consumption (VO2)<25 ml/kg per min during a progressive bicycle ergometer exercise test.\nNearly all patients were receiving background therapy with diuretic and/or digoxin. […] Full doses of the vasodilator regimens in V-HeFT I were prazosin 5 mg four times daily, the combination of hydralazine 75 mg and isosorbide dinitrate 40 mg four times daily, or placebo. […] Drug administration was double-blind. All patients were studied for the duration of the trial and for a minimum of 6 months or until death."}, "[2]": {"test_system": "male patients with heart failure", "experiment": "V-HeFT I hospitalization", "assay_type": "in vivo, human", "from_the_text": "(§1) Drug administration was double-blind."}, "[3]": {"test_system": "male patients with heart failure", "experiment": "V-HeFT II quality of life, Heart Condition Assessment (HCA) questionnaire", "assay_type": "in vivo, human", "settings": "black patients, at 12 months, negative = improved, positive = worsened, p=0.043", "method": "“Quality of life” refers to one or more of a persons ability to walk, climb stairs, do errands, work around the house, participate in recreational activities, and/or not requiring rest during the day, and/or the absence of sleeping problems or shortness of breath. The quality of life was measured using the Heart Condition Assessment (HCA) questionnaire. The questionnaire was self-administered after brief standardization instructions. The score was obtained by summing the ranks of the responses to each question.\nas §1"}, "[4]": {"test_system": "male patients with heart failure", "experiment": "V-HeFT II change in radionuclide left ventricular ejection fraction", "assay_type": "in vivo, human", "settings": "both racial groups", "from_the_text": "as §1"}, "[5]": {"test_system": "male patients with heart failure", "experiment": "V-HeFT II hospitalization", "assay_type": "in vivo, human", "from_the_text": "as §1"}, "[6]": {"test_system": "male patients with heart failure", "experiment": "V-HeFT II mortality (Kaplan-Meier, log-rank)", "assay_type": "in vivo, human", "from_the_text": "as §1"}, "[7]": {"test_system": "male patients with heart failure", "experiment": "V-HeFT II peak exercise oxygen consumption (MVO2), bicycle-ergometer exercise test", "assay_type": "in vivo, human", "method": "“Oxygen consumption” was measured during a progressive maximal bicycle-ergometer exercise test taken while the expired air was collected continuously to monitor oxygen consumption. […] Patients with pulmonary diseases, obstructive valvular diseases and the like, tend to have a low oxygen consumption. An increase in a patient's oxygen consumption typically results in the patient's increased exercise tolerance and implies that the patient would have an improved quality of life.\nas §1"}, "[8]": {"test_system": "male patients with heart failure", "experiment": "V-HeFT II change in radiographic cardiothoracic ratio", "assay_type": "in vivo, human", "settings": "white patients", "from_the_text": "as §1"}, "[9]": {"test_system": "black and white subgroups", "experiment": "black:white relative risk in placebo and enalapril groups (trial not named)", "assay_type": "in vivo, human", "settings": "enalapril group; placebo group 1.15"}, "[10]": {"test_system": "male patients with heart failure", "experiment": "V-HeFT II change in plasma norepinephrine (radioenzymatic assay)", "assay_type": "in vivo, human", "settings": "either racial group", "from_the_text": "as §1"}, "[11]": {"test_system": "male patients with heart failure", "experiment": "V-HeFT II change in systolic blood pressure", "assay_type": "in vivo, human", "from_the_text": "as §1"}},
  "note": "Read-outs that look alike come from different tables or passages of the source.",
  "data": [
    {"compound": "COc1cc2nc(N3CCN(C(=O)c4ccco4)CC3)nc(N)c2cc1OC", "note": "[prazosin]", "values": [
      {"measurement": "annual mortality rate (AMR)", "setting": "[1]; black patients, placebo AMR 17.3%", "result": 15.4, "unit": "%"},
      {"measurement": "treatment benefit on survival", "setting": "[1]; white patients, vs placebo (FIG. 2B)", "result": "absence of demonstrable treatment benefit"},
      {"measurement": "annual mortality rate (AMR)", "setting": "[1]; white patients, placebo AMR 18.8%, p=NS", "result": 22.1, "unit": "%"},
      {"measurement": "patients hospitalized for CHF (%)", "setting": "[2]; black patients", "result": "23.", "unit": "%"},
      {"measurement": "patients hospitalized for any reason (%)", "setting": "[2]; black patients", "result": 40.4, "unit": "%"},
      {"measurement": "patients hospitalized for CHF (%)", "setting": "[2]; white patients", "result": 31.5, "unit": "%"},
      {"measurement": "patients hospitalized for any reason (%)", "setting": "[2]; white patients", "result": 35.4, "unit": "%"}
    ]},
    {"compound": "CCOC(=O)[C@H](CCc1ccccc1)N[C@@H](C)C(=O)N1CCC[C@H]1C(=O)O", "note": "[enalapril]", "values": [
      {"measurement": "quality of life score (HCA questionnaire)", "setting": "[3]", "result": "+1.04"},
      {"measurement": "radionuclide ejection fraction (EF) response", "setting": "[4]", "result": "rose"},
      {"measurement": "patients hospitalized for CHF (%)", "setting": "[5]; black patients", "result": 22.6, "unit": "%"},
      {"measurement": "patients hospitalized for any reason (%)", "setting": "[5]; black patients", "result": 61.3, "unit": "%"},
      {"measurement": "patients hospitalized for CHF (%)", "setting": "[5]; white patients", "result": 17.5, "unit": "%"},
      {"measurement": "patients hospitalized for any reason (%)", "setting": "[5]; white patients", "result": 62.0, "unit": "%"},
      {"measurement": "deaths among treated patients", "setting": "[6]; black patients, of 106 on enalapril, of 109 on hydralazine-isosorbide dinitrate", "result": 39},
      {"measurement": "annual mortality rate (AMR)", "setting": "[6]; black patients, p=NS", "result": 12.8, "unit": "%"},
      {"measurement": "mortality reduction with enalapril compared to hydralazine and isosorbide dinitrate", "setting": "[6]; white patients with a history of hypertension, p<0.02", "result": "significant mortality reduction"},
      {"measurement": "annual mortality rate (AMR)", "setting": "[6]; white patients, log rank p=0.02", "result": 11.0, "unit": "%"},
      {"measurement": "deaths among treated patients", "setting": "[6]; white patients, of 292 on enalapril, of 282 on hydralazine-isosorbide dinitrate", "result": 90},
      {"measurement": "mortality reduction with enalapril compared to hydralazine and isosorbide dinitrate", "setting": "[6]; whites or blacks without hypertensive history, blacks with hypertensive history", "result": "did not differ"},
      {"measurement": "mean improvement (increase) from baseline in MVO2, adjusted for differences in baseline characteristics", "setting": "[7]; black patients, 12 months, p=0.15", "result": 0.010, "unit": "mL/kg/min"},
      {"measurement": "decrease from baseline in MVO2", "setting": "[7]; black patients, 12 months, unadjusted, p=0.19", "result": 0.047, "unit": "mL/kg/min"},
      {"measurement": "effect on oxygen consumption (MVO2)", "setting": "[7]; both black and white patients, 13 weeks", "result": "did not improve"},
      {"measurement": "reduction in radiographic heart size (cardiothoracic ratio) during follow-up", "setting": "[8]", "result": "persisted through 3 years"},
      {"measurement": "black:white relative risk", "setting": "[9]", "result": 1.34},
      {"measurement": "change in plasma norepinephrine (PNE)", "setting": "[10]", "result": "not apparent"},
      {"measurement": "systolic blood pressure after the initial fall", "setting": "[11]; black patients", "result": "recovered by 13 weeks"},
      {"measurement": "systolic blood pressure after the initial fall", "setting": "[11]; white patients, 4.5 years of follow-up", "result": "remained lower thereafter"}
    ]}
  ]
}
